The source of these data is patent US11464763B2, “Parasiticidal compositions comprising an isoxazoline active agent, methods and uses thereof” (BOEHRINGER INGELHEIM ANIMAL HEALTH USA INC., priority 2011, dated 2022).

≈ marks a conversion by molar mass, not a printed value.

The conditions of data set [1]: 14C radiolabeled drug, beagle dogs, spot-on administration; cited from earlier work.
For another data set, the system named is Ctenocephalides felis. Put plainly: Spot-on efficacy of Compound A, pyriproxyfen and nitenpyram against Ctenocephalides felis fleas in cats (Example 11). Format: in vivo. The settings on record: Group 5: 2.08% nitenpyram alone in Transcutol, 5.0 mg/kg. On the procedure:
The efficacy of three spot-on compositions comprising a combination of Compound A, pyriproxyfen and nitenpyram against Ctenocephalides felis fleas in cats was studied and compared with an untreated control and with a spot-on composition comprising nitenpyram alone. Cats were allocated into five Treatment Groups with 5 cats per group: Group 1—cats were untreated (control); Group 2—cats were treated spot-on solution containing 0.83% (w/v) Compound A, 2.08% (w/v) nitenpyram, and 4.17% (w/v) pyriproxyfen in Transcutol® to deliver doses of 1.0 mg/kg Compound A, 2.5 mg/kg nitenpyram and 5.0 mg/kg pyriproxyfen; Group 3—cats were treated a spot-on solution containing 0.83% (w/v) Compound A, 4.17% (w/v) nitenpyram, and 4.17% (w/v) pyriproxyfen in Transcutol® to deliver doses of 1.0 mg/kg Compound A, 5.0 mg/kg nitenpyram and 5.0 mg/kg pyriproxyfen; Group 4—cats were treated with a spot-on composition containing 0.83% (w/v) Compound A, 8.33% (w/v) nitenpyram and 4.17% (w/v) pyriproxyfen in Transcutol® to deliver doses of 1.0 mg/kg Compound A, 10.0 mg/kg nitenpyram and 5.0 mg/kg pyriproxyfen; Group 5—cats were treated with a spot-on composition containing 2.08% (w/v) nitenpyram alone in Transcutol® to deliver a dose of 5.0 mg/kg body weight.
Treatment was administered once on Day 0. The cats were each infested with approximately 100 C. felis fleas at day −1, on Day 0 approximately 12 hours post treatment and then on Days 1 (approx. 24 hours post treatment), 2, 7, 14, 21, 28 and 35. After each infestation, fleas were removed and counted approximately 12 hours (±3) on Day 0, and then on Days 1, 2, 8, 15, 22, 29 and 36 (24±3 hours after infestation).

The conditions of data set [2]: 20° C. and pH of 7; cited from earlier work.

In the case of `N#Cc1nn(-c2c(Cl)cc(C(F)(F)F)cc2Cl)c(N)c1[S+]([O-])C(F)(F)F` (centres unmarked) [fipronil], the “persistently detected in the whole skin after treatment” value in data set [1] is reported as “up to 56 days”.

Consider `CCN(Cc1ccc(Cl)nc1)/C(=C/[N+](=O)[O-])NC` [nitenpyram], for which the “% Reduction” value is 99.44% in the data set with Ctenocephalides felis (Day 0 (12 h)); 99.79% with Ctenocephalides felis (Day 1 (24 h)); 100.00% with Ctenocephalides felis (Day 2 (24 h)); 100.00% with Ctenocephalides felis (Day 8 (24 h)); 96.76% with Ctenocephalides felis (Day 15 (24 h)); 93.63% with Ctenocephalides felis (Day 22 (24 h)). For the same molecule, the solubility in water in data set [2] is 840 mg/mL (≈ 3100 mM).
